Measured values as given in article PMC12484987 (Scientific Reports, 2025).
Where “and” joins values, the source holds several entries; their conditions need not be identical. Identical values can stand only once. Like-named read-outs stand apart in the source and are kept apart here.

Columns and labels:
HIV-1 RT = HIV-1 RT (Human immunodeficiency virus type 1 group M subtype B, UniProt P04585); conditions: cited from earlier work
[1] = test system: MOLT-3 (Acute lymphoblastic leukemia); conditions: MRC-5 vs MOLT-3
[2] = test system: T47-D (Hormone-dependent breast cancer); experiment: cells; conditions: Homo sapiens, T47D, 48 h, read-out: IC50 cytotoxic activity
HepG2 (Hepatocarcinoma) [3] = experiment: cells; conditions: Homo sapiens, HepG2, 48 h, read-out: IC50 cytotoxic activity
[4] = test system: H69AR (Lung cancer, multidrug resistance); conditions: MRC-5 vs H69AR
[5] = test system: MOLT-3 (Acute lymphoblastic leukemia); experiment: cells; conditions: Homo sapiens, MOLT-3, 48 h, read-out: IC50 cytotoxic activity
HL-60 (promyeloblast) [6] = experiment: cells; conditions: Homo sapiens, HL-60, 48 h, read-out: IC50 cytotoxic activity
[7] = test system: HuCCA-1 (Cholangiocarcinoma); conditions: MRC-5 vs HuCCA-1
HepG2 (Hepatocarcinoma) [8] = conditions: MRC-5 vs HepG2
S102 (Thai liver cancer) [9] = conditions: MRC-5 vs S102
[10] = test system: MDA-MB-231 (Hormone-independent breast cancer); experiment: cells; conditions: Homo sapiens, MDA-MB-231, 48 h, read-out: IC50 cytotoxic activity
A549 (Lung carcinoma) [11] = experiment: cells; conditions: Homo sapiens, A549, 48 h, read-out: IC50 cytotoxic activity
[12] = test system: T47-D (Hormone-dependent breast cancer); conditions: MRC-5 vs T47-D
[13] = test system: HeLa (Cervical carcinoma); experiment: cells; conditions: Homo sapiens, 48 h, read-out: IC50 cytotoxic activity
A549 (Lung carcinoma) [14] = conditions: MRC-5 vs A549
S102 (Thai liver cancer) [15] = experiment: cells; conditions: Homo sapiens, 48 h, read-out: IC50 cytotoxic activity
[16] = test system: MDA-MB-231 (Hormone-independent breast cancer); conditions: MRC-5 vs MDA-MB-231
in vitro = conditions: human, MRC-5 cells (normal embryonic lung cells)
[17] = test system: HuCCA-1 (Cholangiocarcinoma); experiment: cells; conditions: Homo sapiens, HuCC-A1, 48 h, read-out: IC50 cytotoxic activity
HL-60 (promyeloblast) [18] = conditions: MRC-5 vs HL-60
[19] = test system: HeLa (Cervical carcinoma); conditions: MRC-5 vs HeLa
[20] = test system: H69AR (Lung cancer, multidrug resistance); experiment: cells; conditions: Homo sapiens, 48 h, read-out: IC50 cytotoxic activity

Row | SMILES | IC50 at 48 h (in vitro) [µM] | Selectivity index SI = IC50(normal cell)/IC50(cancer cell line) [1] | IC50 [2] [µM] | IC50 (HepG2 (Hepatocarcinoma) [3]) [µM] | Selectivity index SI = IC50(normal cell)/IC50(cancer cell line) [4] | IC50 [5] [µM] | IC50 (HL-60 (promyeloblast) [6]) [µM] | Selectivity index SI = IC50(normal cell)/IC50(cancer cell line) [7] | Selectivity index SI = IC50(normal cell)/IC50(cancer cell line) (HepG2 (Hepatocarcinoma) [8]) | Selectivity index SI = IC50(normal cell)/IC50(cancer cell line) (S102 (Thai liver cancer) [9]) | IC50 [10] [µM] | IC50 (A549 (Lung carcinoma) [11]) [µM] | Selectivity index SI = IC50(normal cell)/IC50(cancer cell line) [12] | IC50 [13] [µM] | Selectivity index SI = IC50(normal cell)/IC50(cancer cell line) (A549 (Lung carcinoma) [14]) | IC50 (S102 (Thai liver cancer) [15]) [µM] | Selectivity index SI = IC50(normal cell)/IC50(cancer cell line) [16] | IC50 [17] [µM] | Selectivity index SI = IC50(normal cell)/IC50(cancer cell line) (HL-60 (promyeloblast) [18]) | Selectivity index SI = IC50(normal cell)/IC50(cancer cell line) [19] | other results
1 | Cc1cc(C#N)cc(C)c1Oc1cc(Nc2ccc(C#N)cn2)nc2ccccc12 [4-(2’,6’-dimethyl-4’-cyanophenoxy)−2-(5’’-cyanopyridin-2’’ylamino)quinoline] | – | – | – | – | – | – | – | – | – | – | – | – | – | – | – | – | – | – | – | – | percentage inhibition against HIV-1 RT (HIV-1 RT; quinolines of the previous publication): 45% and 45.1%; IC50 (HIV-1 RT; read-out: IC50 against HIV-1 RT, quinolines of the previous publication): 1.22 µM
2 | N#Cc1ccc(Nc2cc(Oc3ccc(C#N)cc3)c3ccccc3n2)cc1 [4-(4’-cyanophenoxy)−2-(4’’-cyanophenyl)-aminoquinoline] | – | – | – | – | – | – | – | – | – | – | – | – | – | – | – | – | – | – | – | – | percentage inhibition against HIV-1 RT (HIV-1 RT; previous study): 39.71%
3 | COc1cccc2c1C(=O)c1c(O)c3c(c(O)c1C2=O)C[C@@](O)(C(=O)CO)C[C@@H]3O[C@H]1C[C@H](N)[C@H](O)[C@H](C)O1 [doxorubicin, reference compound] | 3.1 ± 0.5 | 155 | 1.2 | 0.6 ± 0.02 | 0.09 | 0.02 | 0.1 | 3.44 | 5.17 | 1.41 | 2.5 ± 0.1 | 0.6 ± 0.1 | 2.58 | 0.4 | 5.17 | 2.2 | 1.24 | 0.9 ± 0.1 | 31 | 7.75 | –
4 | COc1cc([C@@H]2c3cc4c(cc3[C@@H](O[C@@H]3O[C@@H]5CO[C@@H](C)O[C@H]5[C@H](O)[C@H]3O)[C@H]3COC(=O)[C@H]23)OCO4)cc(OC)c1O [etoposide, reference compound] | – | – | – | – | – | 0.03 ± 0.02 | 0.8 ± 0.1 | – | – | – | – | – | – | – | – | – | – | – | – | – | –
5 | O=C1Nc2ccc(Cl)cc2[C@@](C#CC2CC2)(C(F)(F)F)O1 [EFV, efavirenz, reference compound] | 95.6 ± 6 | – | – | – | – | – | – | – | – | – | – | – | – | – | – | – | – | – | – | – | –

The next lines start with results.

Row | IC50 at 48 h (in vitro) [µM] | SMILES | Selectivity index SI = IC50(normal cell)/IC50(cancer cell line) [1] | IC50 [2] [µM] | IC50 (HepG2 (Hepatocarcinoma) [3]) [µM] | Selectivity index SI = IC50(normal cell)/IC50(cancer cell line) [4] | IC50 [5] [µM] | IC50 (HL-60 (promyeloblast) [6]) [µM] | Selectivity index SI = IC50(normal cell)/IC50(cancer cell line) [7] | Selectivity index SI = IC50(normal cell)/IC50(cancer cell line) (HepG2 (Hepatocarcinoma) [8]) | Selectivity index SI = IC50(normal cell)/IC50(cancer cell line) (S102 (Thai liver cancer) [9]) | IC50 [10] [µM] | IC50 (A549 (Lung carcinoma) [11]) [µM] | Selectivity index SI = IC50(normal cell)/IC50(cancer cell line) [12] | IC50 [13] [µM] | Selectivity index SI = IC50(normal cell)/IC50(cancer cell line) (A549 (Lung carcinoma) [14]) | IC50 (S102 (Thai liver cancer) [15]) [µM] | Selectivity index SI = IC50(normal cell)/IC50(cancer cell line) [16] | IC50 [17] [µM] | Selectivity index SI = IC50(normal cell)/IC50(cancer cell line) (HL-60 (promyeloblast) [18]) | Selectivity index SI = IC50(normal cell)/IC50(cancer cell line) [19] | other results
6 | 68.1 ± 1.1 | Cc1cc(C=O)cc(C)c1Oc1cc(Oc2c(C)cc(C=O)cc2C)c2cnccc2n1 [Compound 13a, 2,4-di-(2ˊ,6ˊ-dimethyl-4ˊ-formylphenoxy)−1,6-naphthyridine] | 6.03 | 35.9 ± 2.1 | 60.7 ± 1 | 0.74 | 11.3 ± 2.7 | 17.1 ± 2.4 | 1.61 | 1.12 | 0.98 | 56.3 ± 3.7 | 107 ± 2.6 | 1.90 | 24.1 ± 0.4 | 0.64 | 69.8 ± 2.8 | 1.21 | 42.2 ± 2.6 | 3.98 | 2.83 | IC50 [20]: 91.8 ± 2.9 µM
7 | 65.3 ± 2.1 | Cc1cc(C=O)cc(C)c1Oc1cc(Oc2c(C)cc(C=O)cc2C)c2ccncc2n1 [Compound 14a, 2,4-di-(2ˊ,6ˊ-dimethyl-4ˊ-formylphenoxy)−1,7-naphthyridine] | 6.80 | 26.1 ± 5 | 53.9 ± 3.4 | 1.25 | 9.6 ± 1.1 | 10.4 ± 0.8 | 3.01 | 1.21 | 0.97 | 49.4 ± 6.7 | 60.8 ± 1 | 2.50 | 12.2 ± 0.7 | 1.07 | 67.6 ± 2.2 | 1.32 | 21.7 ± 1.6 | 6.28 | 5.35 | IC50 [20]: 52.2 ± 1.6 µM
